Experimental data taken from patent EP0804408B1, “NOVEL 4-SUBSTITUTED 2,6-DI-TERT-BUTYLPHENOL COMPOUNDS, PHARMACEUTICAL COMPOSITIONS CONTAINING SAME AND PREPARATION METHOD THEREFOR” (priority 1994, dated 1996).

Tested on: virus-stock de souche HSV1
Experiment: Virucidal properties on HSV1 stock virus (infectious titre after incubation at 37°C)
Assay type: cell-based
Description: On a apprécié les propriétés virucides du 3,5-di-t-butyl-4-hydroxybenzoate d'octaoxyéthylèneglycol de formule : [drawing 23] dénommé ci-après par commodité AVF1, sur un échantillon de "virus-stock" de souche HSV1. Le titre infectieux (TV) d'échantillons traités avec AVF1 a été comparé au titre infectieux (TV0) d'un échantillon témoin afin de calculer la valeur log (TV/TV0).
Le protocole a consisté à incuber à 37°C l'échantillon de virus HSV1 stock avec le composé AVF1, en faisant varier la concentration en AVF1 et le temps d'incubation. TV0 a été déterminé à partir d'une composition constituée de 0,5 ml de milieu de culture MEM et 0,5 ml de virus-stock et TV a été déterminée à partir d'une composition constituée de 0,5 ml de AVF1 à diverses concentrations dans ledit milieu MEM et de 0,5 ml de virus-stock. Les valeurs TV0 et TV obtenus sont des multiples de la DI50/ml.
• Concentrations en AVF1 : 0,03; 0,06; 0,12; 0,25; 0,5; 1,25; 2,5; 5 mg/ml. • Temps d'incubation : 60 et 120 minutes. • Résultats : • Titre du témoin-virus : […] DI50/ml. • AVF1 < 2,5 mg/ml : TV. • AVF1 ≥ 2,5 mg/ml : 0. • Conclusions : AVF1 est virucide en 60 minutes à la concentration 2,5 mg/ml.
• Concentrations en AVF1 : 1 et 5 mg/ml. • Temps d'incubation : 5, 15, 30, et 60 minutes. • Résultats : • Titre du témoin-virus : 2 x 10^6 DI50/ml • AVF1 = 5 mg/ml : virucide en 5 minutes, titre = 0. • AVF1 = 1 mg/ml : le titre est réduit de 1,5 log 10 en 60 minutes.

CC(C)(C)c1cc(C(=O)OCCOCCOCCOCCOCCOCCOCCOCCO)cc(C(C)(C)C)c1O [AVF1, 3,5-di-t-butyl-4-hydroxybenzoate d'octaoxyéthylèneglycol]
concentration virucide en 60 minutes (Essai 1, 60 minutes, 37°C): 2,5 mg/ml | Titre infectieux (TV) (Essai 1, AVF1 ≥ 2,5 mg/ml, incubation 60 and 120 minutes, 37°C): 0 DI50/ml | réduction du titre (Essai 2, AVF1 = 1 mg/ml, 60 minutes): 1,5 log 10 | titre (Essai 2, AVF1 = 5 mg/ml, virucidal in 5 minutes): 0 DI50/ml
